Read-outs that look alike come from different tables or passages of the source.
Columns and labels:
[1] = target: T1, catalytic domain of human Bub1 (amino acids 704-1085) (Homo sapiens, UniProt O43683); test: Bub1 kinase assay (TR-FRET); type: biochemical
T1 construct: catalytic domain of human Bub1 (amino acids 704-1085); His6 (N); made in house; host or cells: Hi5 insect cells
Description: To this end, 100-fold concentrated compound solutions (in DMSO) were previously prepared by serial dilution (1:3.4) of 2 mM stocks in a clear low volume 384-well source microtiter plate (Greiner Bio-One, Frickenhausen, Germany), from which 50 nl of compounds were transferred into a black low volume test microtiter plate from the same supplier. […] The resulting mixture (5 μL final volume) was incubated at 22° C. during 60 min., and the reaction was stopped by the addition of 5 μL of an aqueous EDTA-solution (50 mM EDTA, in 100 mM HEPES pH 7.5 and 0.2% (w/v) bovine serum albumin) which also contained the TR-FRET detection reagents (0.2 μM streptavidin-XL665 [Cisbio Bioassays, Codolet, France] and 1 nM anti-phosho-Serine antibody [Merck Millipore, cat. #35-001] and 0.4 nM LANCE EU-W1024 labeled anti-mouse IgG antibody [Perkin-Elmer, product no. AD0077, alternatively a Terbium-cryptate-labeled anti-mouse IgG antibody from Cisbio Bioassays can be used]). The stopped reaction mixture was further incubated 1 h at 22° C. in order to allow the formation of complexes between peptides and detection reagents. Subsequently, the amount of product was evaluated by measurement of the resonance energy transfer from the Eu-chelate-antibody complex recognizing the Phosphoserine residue to the streptavidin-XL665 bound to the biotin moiety of the peptide. […] IC50 values were calculated by fitting the normalized inhibition data to a 4-parameter logistic equation (Minimum, Maximum, IC50, Hill; Y=Max+(Min−Max)/(1+(X/IC50)Hill)).

HeLa cell line = test: Proliferation assay (HeLa cell line), crystal violet staining; type: cell-based; conditions: Homo sapiens, 96 h, read-out: Biological Assay 2: Proliferation assay (HeLa cell line) median IC50
Description: Cultivated tumor cells (cells were ordered from ATCC, except HeLa-MaTu and HeLa-MaTu-ADR, which were ordered from EPO-GmbH, Berlin) were plated at a density of 1000 to 5000 cells/well, depending on the growth rate of the respective cell line, in a 96-well multititer plate in 200 μL of their respective growth medium supplemented 10% fetal calf serum. After 24 hours, the cells of one plate (zero-point plate) were stained with crystal violet (see below), while the medium of the other plates was replaced by fresh culture medium (200 μL), to which the test substances were added in various concentrations (0 μM, as well as in the range of 0.001-10 μM; the final concentration of the solvent dimethyl sulfoxide was 0.5%). The cells were incubated for 4 days in the presence of test substances. Cell proliferation was determined by staining the cells with crystal violet: the cells were fixed by adding 20 μl/measuring point of an 11% glutaric aldehyde solution for 15 minutes at room temperature. After three washing cycles of the fixed cells with water, the plates were dried at room temperature. The cells were stained by adding 100 μl/measuring point of a 0.1% crystal violet solution (pH 3.0). After three washing cycles of the stained cells with water, the plates were dried at room temperature. The dye was dissolved by adding 100 μl/measuring point of a 10% acetic acid solution. Absorption was determined by photometry at a wavelength of 595 nm. The change of cell number, in percent, was calculated by normalization of the measured values to the absorption values of the zero-point plate (=0%) and the absorption of the untreated (0 μm) cells (=100%). The IC50 values were determined by means of a 4 parameter fit using the company's own software.

[2] = TR-FRET, recombinant catalytic domain of human Bub1, ATP 10 μM, peptide substrate 1 μM, median value, read-out: Biological Assay 1: Bub1 kinase assay median IC50
[3] = HeLa cells, incubated for 4 days with test substance, crystal violet staining, median value

T1 sequence (O43683 704-1085): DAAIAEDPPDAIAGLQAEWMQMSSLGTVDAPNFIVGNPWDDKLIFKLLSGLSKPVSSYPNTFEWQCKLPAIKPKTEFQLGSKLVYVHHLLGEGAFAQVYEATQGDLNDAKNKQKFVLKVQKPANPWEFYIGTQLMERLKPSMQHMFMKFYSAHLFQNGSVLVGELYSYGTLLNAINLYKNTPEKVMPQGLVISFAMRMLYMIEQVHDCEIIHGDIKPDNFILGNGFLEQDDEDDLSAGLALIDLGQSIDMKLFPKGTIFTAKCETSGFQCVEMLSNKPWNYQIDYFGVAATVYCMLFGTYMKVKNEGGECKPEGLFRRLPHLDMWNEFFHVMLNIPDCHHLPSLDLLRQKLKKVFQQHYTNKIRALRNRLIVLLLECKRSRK

Row | SMILES | IC50 [1, 2] | IC50 (HeLa cell line; HeLa) | IC50 [1] | IC50 (HeLa cell line; [3])
1 | CCOc1cc(F)c(Cn2nc(-c3ncc(OC)c(Nc4ccccc4)n3)c3ccccc32)c(F)c1 [Example 2-1-1, 2-[1-(4-ethoxy-2,6-difluorobenzyl)-1H-indazol-3-yl]-5-methoxy-N-phenylpyrimidin-4-amine] | 1500 nM | > 10000 nM | – | –
2 | COc1ccc(Cn2nc(-c3ncc(OC)c(Nc4cccnc4)n3)c3ccccc32)cc1 [Example 2-1-3, 5-methoxy-2-[1-(4-methoxybenzyl)-1H-indazol-3-yl]-N-(pyridin-3-yl)pyrimidin-4-amine] | 2600 nM | 3600 nM | – | –
3 | COc1ccc(Cn2nc(-c3ncc(OC)c(Nc4ccnn4C)n3)c3ccccc32)cc1 [Example 2-1-4, 5-methoxy-2-[1-(4-methoxybenzyl)-1H-indazol-3-yl]-N-(1-methyl-1H-pyrazol-5-yl)pyrimidin-4-amine] | 3300 nM | – | – | –
4 | COc1ccc(Cn2nc(-c3ncc(OC)c(Nc4ccccc4)n3)c3ccccc32)cc1 [Example 2-1-5, 5-methoxy-2-[1-(4-methoxybenzyl)-1H-indazol-3-yl]-N-phenylpyrimidin-4-amine] | 3700 nM | – | – | –
5 | COc1ccc(Cn2nc(-c3ncc(OC)c(Nc4ccc(F)cc4)n3)c3ccccc32)cc1 [Example 2-1-6, N-(4-fluorophenyl)-5-methoxy-2-[1-(4-methoxybenzyl)-1H-indazol-3-yl]pyrimidin-4-amine] | 8800 nM | – | – | –
6 | CCOc1cc(F)c(Cn2nc(-c3ncc(OC)c(Nc4ccnnc4)n3)c3ccccc32)c(F)c1 [Example 2-2-1, N-{2-[1-(4-ethoxy-2,6-difluorobenzyl)-1H-indazol-3-yl]-5-methoxypyrimidin-4-yl}pyridazin-4-amine] | 11 nM | > 10000 nM | – | –
7 | CCOc1cc(F)c(Cn2nc(-c3ncc(OC)c(Nc4ccncn4)n3)c3ccccc32)c(F)c1 [Example 2-2-2, 2-[1-(4-ethoxy-2,6-difluorobenzyl)-1H-indazol-3-yl]-5-methoxy-N-(pyrimidin-4-yl)pyrimidin-4-amine] | 22 nM | > 10000 nM | – | –
8 | CCOc1cc(F)c(Cn2nc(-c3cc(Nc4ccncn4)ncn3)c3ccccc32)c(F)c1 [Example 2-2-3, 6-[1-(4-ethoxy-2,6-difluorobenzyl)-1H-indazol-3-yl]-N-(pyrimidin-4-yl)pyrimidin-4-amine] | 25 nM | 5000 nM | – | –
9 | CCOc1cc(F)c(Cn2nc(-c3ncc(OC)c(Nc4ccccc4C(=O)O)n3)c3ccccc32)c(F)c1 [Example 2-2-4, 2-({2-[1-(4-ethoxy-2,6-difluorobenzyl)-1H-indazol-3-yl]-5-methoxypyrimidin-4-yl}amino)benzoic acid] | – | – | 290 nM | –
10 | CCOc1cc(F)c(Cn2nc(-c3ncc(OC)c(Nc4ccc(F)cc4C(=O)O)n3)c3ccccc32)c(F)c1 [Example 2-2-5, 2-({2-[1-(4-ethoxy-2,6-difluorobenzyl)-1H-indazol-3-yl]-5-methoxypyrimidin-4-yl}amino)-5-fluorobenzoic acid] | – | – | 180 nM | –
11 | CCOc1cc(F)c(Cn2nc(-c3ncc(OC)c(Nc4cncc(C(=O)NC)n4)n3)c3ccccc32)c(F)c1 [Example 2-2-6, 6-({2-[1-(4-ethoxy-2,6-difluorobenzyl)-1H-indazol-3-yl]-5-methoxypyrimidin-4-yl}amino)-N-methylpyrazine-2-carboxamide] | 660 nM | > 10000 nM | – | –
12 | CCCc1ccc(Cn2nc(-c3ncc(OC)c(Nc4ccncn4)n3)c3ccccc32)cc1 [Example 2-3-1, 5-methoxy-2-[1-(4-propylbenzyl)-1H-indazol-3-yl]-N-(pyrimidin-4-yl)pyrimidin-4-amine] | 44 nM | > 10000 nM | – | –
13 | CCOc1cc(F)c(Cn2nc(-c3ncc(OC)c(Nc4ccc(O)cc4)n3)c3ccccc32)c(F)c1 [Example 2-4-1, 4-({2-[1-(4-ethoxy-2,6-difluorobenzyl)-1H-indazol-3-yl]-5-methoxypyrimidin-4-yl}amino)phenol] | 240 nM | 6900 nM | – | –
14 | CCOc1cc(F)c(Cn2nc(-c3cc(Nc4ccncn4)ccn3)c3ccccc32)c(F)c1 [Example 2-5-1, N-{2-[1-(4-ethoxy-2,6-difluorobenzyl)-1H-indazol-3-yl]pyridin-4-yl}pyrimidin-4-amine] | 14 nM | > 10000 nM | – | –
15 | CCOc1cc(F)c(Cn2nc(-c3cc(Nc4ncncn4)ccn3)c3ccccc32)c(F)c1 [Example 2-5-2, N-{2-[1-(4-ethoxy-2,6-difluorobenzyl)-1H-indazol-3-yl]pyridin-4-yl}-1,3,5-triazin-2-amine] | 21 nM | 2900 nM | – | –
16 | CCOc1cc(F)c(Cn2nc(-c3cc(Nc4cnsc4)ccn3)c3ccccc32)c(F)c1 [Example 2-5-3, 2-[1-(4-ethoxy-2,6-difluorobenzyl)-1H-indazol-3-yl]-N-(1,2-thiazol-4-yl)pyridin-4-amine] | 720 nM | > 10000 nM | – | –
17 | CCOc1cc(F)c(Cn2nc(-c3cc(Nc4ccncn4)ccn3)c3cnccc32)c(F)c1 [Example 2-5-4, N-{2-[1-(4-ethoxy-2,6-difluorobenzyl)-1H-pyrazolo[4,3-c]pyridin-3-yl]pyridin-4-yl}pyrimidin-4-amine] | – | – | 220 nM | –
18 | COc1ccc(Cn2nc(-c3nccc(Nc4nnc(N)[nH]4)n3)c3ccccc32)cc1 [Example 2-5-5, N-{2-[1-(4-methoxybenzyl)-1H-indazol-3-yl]pyrimidin-4-yl}-4H-1,2,4-triazole-3,5-diamine] | 2800 nM | – | – | –
19 | Fc1cccc(F)c1Cn1nc(-c2cc(Nc3ccncn3)ccn2)c2ccccc21 [Example 2-6-2, N-{2-[1-(2,6-difluorobenzyl)-1H-indazol-3-yl]pyridin-4-yl}pyrimidin-4-amine] | – | – | 13 nM | > 10000 nM
20 | CCCc1ccc(Cn2nc(-c3cc(Nc4ccncn4)ccn3)c3ccccc32)cc1 [Example 2-6-3, N-{2-[1-(4-propylbenzyl)-1H-indazol-3-yl]pyridin-4-yl}pyrimidin-4-amine] | – | – | 28 nM | 6900 nM
21 | Cn1cc(Nc2ccnc(-c3nn(Cc4ccccc4F)c4ccccc34)c2)cn1 [Example 2-6-4, 2-[1-(2-fluorobenzyl)-1H-indazol-3-yl]-N-(1-methyl-1H-pyrazol-4-yl)pyridin-4-amine] | – | – | 17000 nM | –
22 | CCOc1cc(F)c(Cn2nc(-c3cc(Nc4cn[nH]c4)ccn3)c3ccccc32)c(F)c1 [Example 2-7-1, 2-[1-(4-ethoxy-2,6-difluorobenzyl)-1H-indazol-3-yl]-N-(1H-pyrazol-4-yl)pyridin-4-amine] | 17 nM | 2400 nM | – | –
23 | CCOc1cc(F)c(Cn2nc(-c3cc(Nc4ncnn4CC)ccn3)c3ccccc32)c(F)c1 [Example 2-8-1, 2-[1-(4-ethoxy-2,6-difluorobenzyl)-1H-indazol-3-yl]-N-(1-ethyl-1H-1,2,4-triazol-5-yl)pyridin-4-amine] | 120 nM | – | – | –
24 | CCOc1cc(F)c(Cn2nc(-c3cc(Nc4nnc[nH]4)ccn3)c3ccccc32)c(F)c1 [Example 2-8-2, 2-[1-(4-ethoxy-2,6-difluorobenzyl)-1H-indazol-3-yl]-N-(4H-1,2,4-triazol-3-yl)pyridin-4-amine] | 800 nM | – | – | –
25 | Oc1cnc(-c2nn(Cc3ccccc3F)c3ccccc23)nc1Nc1ccncn1 [Example 2-9-1, 2-[1-(2-fluorobenzyl)-1H-indazol-3-yl]-4-(pyrimidin-4-ylamino)pyrimidin-5-ol] | 13 nM | > 10000 nM | – | –
26 | COc1ccc(Cn2nc(-c3ncc(OC)c(Nc4cn[nH]c4)n3)c3ccccc32)cc1 [Example 2-10-1, 5-methoxy-2-[1-(4-methoxybenzyl)-1H-indazol-3-yl]-N-(1H-pyrazol-4-yl)pyrimidin-4-amine] | – | 3400 nM | 20 nM | –
